Data reported in ChEMBL document CHEMBL1275450, “Posaconazole enhances the activity of amphotericin B against hyphae of zygomycetes in vitro” (2008).
Converted amounts (≈) assume the structure as drawn.

Columns and labels:
Format in all cases: functional
Mucor [1] = assay: Antimicrobial activity against Mucor spp. conidia after 24 hrs by AFST-EUCAST method
[2] = tested on: Syncephalastrum racemosum; assay: Antimicrobial activity against Syncephalastrum racemosum conidia after 24 hrs by AFST-EUCAST method
Lichtheimia corymbifera [3] = assay: Antimicrobial activity against Absidia corymbifera hyphae after 24 hrs by AFST-EUCAST method
[4] = tested on: Cunninghamella bertholletiae; assay: Antimicrobial activity against Cunninghamella bertholletiae conidia after 24 hrs by AFST-EUCAST method
Rhizomucor [5] = assay: Antimicrobial activity against Rhizomucor spp. conidia after 24 hrs by AFST-EUCAST method
Lichtheimia corymbifera [6] = assay: Antimicrobial activity against Absidia corymbifera conidia after 24 hrs by AFST-EUCAST method
[7] = tested on: Syncephalastrum racemosum; assay: Antimicrobial activity against Syncephalastrum racemosum hyphae after 24 hrs by AFST-EUCAST method
[8] = tested on: Cunninghamella bertholletiae; assay: Antimicrobial activity against Cunninghamella bertholletiae hyphae after 24 hrs by AFST-EUCAST method
Rhizomucor [9] = assay: Antimicrobial activity against Rhizomucor spp. hyphae after 24 hrs by AFST-EUCAST method
Rhizopus [10] = assay: Antimicrobial activity against Rhizopus spp. conidia after 24 hrs by AFST-EUCAST method
Mucor [11] = assay: Antimicrobial activity against Mucor spp. hyphae after 24 hrs by AFST-EUCAST method
Rhizopus [12] = assay: Antimicrobial activity against Rhizopus spp. hyphae after 24 hrs by AFST-EUCAST method
Mucor [13] = assay: Antimicrobial activity against Mucor spp. conidia after 24 hrs by XTT method in presence of amphotericin B
Rhizopus arrhizus [14] = assay: Antimicrobial activity against Rhizopus oryzae hyphae after 24 hrs by XTT method in presence of amphotericin B
Rhizomucor [15] = assay: Antimicrobial activity against Rhizomucor spp. conidia after 24 hrs by XTT method in presence of amphotericin B
[16] = Antimicrobial activity against Rhizopus microsporus conidia after 24 hrs by XTT method in presence of amphotericin B
[17] = tested on: Cunninghamella bertholletiae; assay: Antimicrobial activity against Cunninghamella bertholletiae conidia after 24 hrs by XTT method in presence of amphotericin B
[18] = tested on: Syncephalastrum racemosum; assay: Antimicrobial activity against Syncephalastrum racemosum conidia after 24 hrs by XTT method in presence of amphotericin B
[19] = tested on: Syncephalastrum racemosum; assay: Antimicrobial activity against Syncephalastrum racemosum hyphae after 24 hrs by XTT method in presence of amphotericin B
Rhizopus arrhizus [20] = assay: Antimicrobial activity against Rhizopus oryzae conidia after 24 hrs by XTT method in presence of amphotericin B
Lichtheimia corymbifera [21] = assay: Antimicrobial activity against Absidia corymbifera conidia after 24 hrs by XTT method in presence of amphotericin B
[22] = tested on: Cunninghamella bertholletiae; assay: Antimicrobial activity against Cunninghamella bertholletiae hyphae after 24 hrs by XTT method in presence of amphotericin B
Rhizomucor [23] = assay: Antimicrobial activity against Rhizomucor spp. hyphae after 24 hrs by XTT method in presence of amphotericin B
Mucor [24] = assay: Antimicrobial activity against Mucor spp. hyphae after 24 hrs by XTT method in presence of amphotericin B
[25] = Antimicrobial activity against Rhizopus microsporus hyphae after 24 hrs by XTT method in presence of amphotericin B
Lichtheimia corymbifera [26] = assay: Antimicrobial activity against Absidia corymbifera hyphae after 24 hrs by XTT method in presence of amphotericin B

SMILES | MIC (Mucor [1]) | MIC [2] | MIC (Lichtheimia corymbifera [3]) | MIC [4] | MIC (Rhizomucor [5]) | MIC (Lichtheimia corymbifera [6]) | MIC [7] | MIC [8] | MIC (Rhizomucor [9]) | MIC (Rhizopus [10]) | MIC (Mucor [11]) | MIC (Rhizopus [12]) | further results
C[C@@H]1[C@H](O)[C@@H](C)/C=C/C=C/C=C/C=C/C=C/C=C/C=C/[C@H](O[C@@H]2O[C@H](C)[C@@H](O)[C@H](N)[C@@H]2O)C[C@@H]2O[C@](O)(C[C@@H](O)C[C@@H](O)[C@H](O)CC[C@@H](O)C[C@@H](O)CC(=O)O[C@H]1C)C[C@H](O)[C@H]2C(=O)O [AMPHOTERICIN B] | 0.5 µg/mL (≈ 0.541 µM) | 0.5 µg/mL (≈ 0.541 µM) | 1 µg/mL (≈ 1.08 µM) | 0.5 µg/mL (≈ 0.541 µM) | 0.5 µg/mL (≈ 0.541 µM) | 0.5 µg/mL (≈ 0.541 µM) | 1 µg/mL (≈ 1.08 µM) | 1 µg/mL (≈ 1.08 µM) | 1 µg/mL (≈ 1.08 µM) | 0.5 µg/mL (≈ 0.541 µM) | 1 µg/mL (≈ 1.08 µM) | 1 µg/mL (≈ 1.08 µM) | –
CC[C@@H]([C@H](C)O)n1ncn(-c2ccc(N3CCN(c4ccc(OC[C@@H]5CO[C@@](Cn6cncn6)(c6ccc(F)cc6F)C5)cc4)CC3)cc2)c1=O [POSACONAZOLE] | 0.25 µg/mL (≈ 0.357 µM) | 0.25 µg/mL (≈ 0.357 µM) | 1 µg/mL (≈ 1.43 µM) | 0.25 µg/mL (≈ 0.357 µM) | 0.25 µg/mL (≈ 0.357 µM) | 0.25 µg/mL (≈ 0.357 µM) | 1 µg/mL (≈ 1.43 µM) | 1 µg/mL (≈ 1.43 µM) | 1 µg/mL (≈ 1.43 µM) | 0.25 µg/mL (≈ 0.357 µM) | 1 µg/mL (≈ 1.43 µM) | 1 µg/mL (≈ 1.43 µM) | fractional inhibitory concentration index (FICI) (Mucor [13]): 1.25; fractional inhibitory concentration index (FICI) (Rhizopus arrhizus [14]): 1; fractional inhibitory concentration index (FICI) (Rhizomucor [15]): 0.5; fractional inhibitory concentration index (FICI) [16]: 0.37; fractional inhibitory concentration index (FICI) [17]: 1.1; fractional inhibitory concentration index (FICI) [18]: 1; fractional inhibitory concentration index (FICI) [19]: 0.6; fractional inhibitory concentration index (FICI) (Rhizopus arrhizus [20]): 0.75; fractional inhibitory concentration index (FICI) (Lichtheimia corymbifera [21]): 0.75; fractional inhibitory concentration index (FICI) [22]: 0.5; fractional inhibitory concentration index (FICI) (Rhizomucor [23]): 0.75; fractional inhibitory concentration index (FICI) (Mucor [24]): 0.5; fractional inhibitory concentration index (FICI) [25]: 0.37; fractional inhibitory concentration index (FICI) (Lichtheimia corymbifera [26]): 0.37
